According to the supplement of paper PMC10307832:

How the values were obtained:
Test in all cases: relative viability (nuclei count vs DMSO), 5 days (fraction); higher = more cells survive
[1] = compound: C1CC(C1)(C(=O)O)C(=O)O.[NH2-].[NH2-].[Pt+2] [Carboplatin]
Method in brief: (§1)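 Lung cancer cell lines received five library-drug doses (not always all listed) spaced by √10, pinned on vehicle-anchored 1536-well plates after an overnight stay at 37 °C. Five days later, with no medium change, nuclei were Hoechst-stained, imaged at 4× and counted with MetaXpress. Viability is treated-well nuclei relative to vehicle-well nuclei, as a median across plates. Passing plates had control CV below 25% and at least one doubling.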

[2] = compound: CC[C@H](C)N1C=C(C2=C(C=C(C=C21)C3=CN=C(C=C3)N4CCNCC4)C(=O)NCC5=C(C=C(NC5=O)C)C)C [GSK126]
Method in brief: as §1

[3] = compound: NS(=O)(=O)OC[C@@H]1C[C@@H](n2ccc3c(N[C@H]4CCc5ccccc54)ncnc32)C[C@@H]1O [MLN4924]
Method in brief: as §1

[4] = compound: CC[C@H](C)N1C=C(C2=C(C=C(C=C21)C3=CN=C(C=C3)N4CCNCC4)C(=O)NCC5=C(C=C(NC5=O)C)C)C [GSK126] + C[C@@H](Oc1cc(-c2cnn(C3CCNCC3)c2)cnc1N)c1c(Cl)ccc(F)c1Cl [Crizotinib] (partner 1 µM)
Method in brief: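 Nuclei were stained with Hoechst during a one-step fixation (final 0.05% Triton X-100, 1% formaldehyde, 1 ug/ml Hoechst) carried out 5 days after dosing, then counted on 4× images. The cells, lung cancer lines in 1536-well plates, had been dosed by pin tool the day after seeding with one drug alone or a fixed anchor-drug dose plus five library-drug doses (not always all listed) in √10 steps. Relative viability is the nuclei count in treated wells divided by that in vehicle wells, and each value is the median of duplicate plates.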

Cell Line	relative viability ([1]; 0.08 µM)	relative viability ([1]; 0.253 µM)	relative viability ([1]; 0.8 µM)	relative viability ([1]; 2.53 µM)	relative viability ([1]; 8 µM)	relative viability ([2]; 0.08 µM)	relative viability ([2]; 0.253 µM)	relative viability ([2]; 0.8 µM)	relative viability ([2]; 2.53 µM)	relative viability ([2]; 8 µM)	relative viability ([3]; 0.04 µM)	relative viability ([3]; 0.1265 µM)	relative viability ([3]; 0.4 µM)	relative viability ([3]; 1.265 µM)	relative viability ([3]; 4 µM)	relative viability ([4]; first compound 0.08 µM)	relative viability ([4]; first compound 0.253 µM)	relative viability ([4]; first compound 0.8 µM)	relative viability ([4]; first compound 2.53 µM)	relative viability ([4]; first compound 8 µM)
201T	1.01	0.994	1.03	0.971	0.9	1.03	1.01	1.02	1.06	1.07	1.09	0.989	0.73	0.375	0.307	1.1	1.06	1.03	0.93	1.09
A549	1.02	1.01	0.938	0.935	0.563	1.08	0.946	0.955	1.01	0.987	0.946	0.863	0.658	0.0802	0.0487	0.925	0.677	0.709	0.807	0.652
A-427	1.07	1	1	1.07	1.01	1.09	1.02	0.97	1.09	1.07	0.515	0.44	0.31	0.218	0.234	0.898	1.01	0.857	0.856	0.84
ABC-1	1.04	0.873	0.985	0.88	0.587	1.11	1.03	0.992	1.15	1.05	1.06	0.965	0.384	0.249	0.283	1.06	1.16	1.23	1.17	0.937
BEN	1.11	0.969	0.987	0.904	0.893	1.1	0.997	0.914	1.04	0.924	0.729	0.627	0.408	0.197	0.219	0.892	0.87	0.832	0.823	0.671
CAL-12T	1.02	1.04	1	1.07	0.877	1.09	0.986	0.973	1.07	1.17	0.854	0.82	0.485	0.344	0.198	0.805	0.67	0.699	0.398	0.441
COR-L23	0.961	0.928	0.979	0.759	0.417	1.1	1.02	0.944	0.986	1.02	0.98	0.882	0.661	0.233	0.135	0.663	0.559	0.659	0.611	0.713
COR-L 105	0.975	0.939	0.845	0.831	0.52	1.03	0.87	0.856	1.02	0.971	0.775	0.773	0.431	0.258	0.336	0.859	0.935	0.783	0.687	0.62
Calu-6	1.01	1.03	0.973	0.851	0.491	1.1	1.05	0.954	1.07	1.03	0.914	0.653	0.24	0.141	0.134	0.906	0.749	0.806	0.844	0.759
ChaGo-K-1	0.989	0.959	0.93	0.818	0.614	1.01	1.03	0.973	1.05	1.02	0.858	0.833	0.503	0.238	0.23	0.998	1.09	0.976	1.14	1.12
EBC-1	1.07	0.987	0.97	0.969	0.851	1.03	0.966	0.969	0.978	0.947	0.855	0.703	0.283	0.104	0.131	0.204	0.203	0.182	0.193	0.173
EKVX	1.01	0.984	0.99	1.05	0.855	1.02	1.08	1.02	1.03	0.982	0.933	0.914	0.685	0.238	0.209	0.899	0.921	0.895	0.978	1.09
EMC-BAC-2	1.05	0.942	1.16	1.2	0.855	0.978	0.965	0.984	0.989	1.16	0.876	0.906	0.359	0.243	0.257	0.772	0.765	0.718	0.723	0.701
EPLC-272H	1.2	1.11	1.07	0.924	0.919	1.1	1.01	0.936	1.08	1.04	0.873	0.637	0.0627	0.119	0.173	1.07	0.843	0.909	0.719	0.789
H3255	0.979	1.11	1.01	0.939	0.784	1.04	1.01	0.993	1.06	0.963	0.825	0.721	0.391	0.246	0.328	1.02	0.814	0.819	0.866	0.794
HARA	1.02	0.937	0.932	0.921	0.944	1.07	0.936	0.931	0.855	0.756	0.855	0.834	0.412	0.103	0.127	1.13	0.986	1.01	1.12	0.817
